Assay results from ChEMBL document CHEMBL1201862, “PubChem BioAssay data set” (2004).
Active and inactive are the calls of the source.

What was measured:
[1] = tested on: HEK293; assay: inhibition of NOD1-driven NF-kB reporter – cell-based, luminescence, uHTS, primary screen (AID 1578); assay type: functional; settings: Homo sapiens
[2] = tested on: HEK293; assay: cells; assay type: functional, cell-based; settings: Homo sapiens
[3] = tested on: HEK293; assay: cells; assay type: functional, cell-based; settings: Homo sapiens; remark: listed apart in the source
[4] = tested on: HEK293; assay: NOD2 signaling inhibitors in MDP-stimulated cells, cell-based, uHTS, luminescence (AID 2001); assay type: functional; settings: Homo sapiens
[5] = biological target: Tumor necrosis factor (Homo sapiens, UniProt P01375); assay: analog potency on TNFa NF-kB signaling – cell-based, revised, SAR follow-up (AID 2337); assay type: functional
[6] = tested on: HEK293; assay: cells; settings: Homo sapiens
[7] = tested on: INS1; assay: INS-1E survival protection against cytokine death – cell-based, luminescence, retest, dose response (AID 449756); assay type: functional; settings: Rattus norvegicus;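 note: cell death triggered by IL-1 beta plus TNF-alpha plus IFN-gamma mixture; protective hits raise ATP signal compared with cytokine alone wells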
[8] = biological target: T1, Nucleotide-binding oligomerization domain-containing protein 1 (Homo sapiens, UniProt Q9Y239); assay: blockers of NOD1 pathway activity – revised, SAR follow-up (AID 2333); assay type: functional
T1 sequence (Q9Y239 whole entry): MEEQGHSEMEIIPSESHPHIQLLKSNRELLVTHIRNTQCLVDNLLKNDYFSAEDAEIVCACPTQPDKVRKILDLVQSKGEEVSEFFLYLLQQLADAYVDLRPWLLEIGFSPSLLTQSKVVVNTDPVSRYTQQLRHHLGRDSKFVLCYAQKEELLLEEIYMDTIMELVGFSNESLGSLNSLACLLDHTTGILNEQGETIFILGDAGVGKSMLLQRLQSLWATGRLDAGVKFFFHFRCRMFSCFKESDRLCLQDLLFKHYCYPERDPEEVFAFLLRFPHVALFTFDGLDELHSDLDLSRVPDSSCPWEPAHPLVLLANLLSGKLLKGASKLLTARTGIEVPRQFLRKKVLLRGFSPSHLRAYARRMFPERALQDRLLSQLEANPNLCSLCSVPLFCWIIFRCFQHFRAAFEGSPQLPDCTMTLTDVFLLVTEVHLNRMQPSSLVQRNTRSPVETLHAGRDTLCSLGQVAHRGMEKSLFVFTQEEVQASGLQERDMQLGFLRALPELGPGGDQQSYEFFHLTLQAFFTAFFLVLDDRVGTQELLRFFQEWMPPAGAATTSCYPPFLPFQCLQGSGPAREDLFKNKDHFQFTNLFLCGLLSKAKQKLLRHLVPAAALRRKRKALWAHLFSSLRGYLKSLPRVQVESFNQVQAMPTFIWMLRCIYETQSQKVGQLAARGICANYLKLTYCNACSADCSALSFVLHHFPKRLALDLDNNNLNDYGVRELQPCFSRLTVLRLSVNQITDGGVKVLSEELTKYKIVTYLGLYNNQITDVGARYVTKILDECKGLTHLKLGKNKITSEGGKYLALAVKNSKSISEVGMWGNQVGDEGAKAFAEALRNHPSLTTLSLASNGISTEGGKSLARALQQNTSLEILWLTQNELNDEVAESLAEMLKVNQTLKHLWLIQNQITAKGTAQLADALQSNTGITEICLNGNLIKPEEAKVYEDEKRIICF

[9] = biological target: T2, Bcl-2-like protein 10 (Homo sapiens, UniProt Q9HD36); assay: Bcl-B/TR3 peptide binding disruption – biochemical, fluorescence polarization, FITC-TR3 peptide, selectivity assay for Bfl-1 inhibitor project, primary screen (AID 748);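 note: fluorescence polarization from a fluorescein-labelled TR3 peptide binding purified Bcl-B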
T2 sequence (Q9HD36 whole entry): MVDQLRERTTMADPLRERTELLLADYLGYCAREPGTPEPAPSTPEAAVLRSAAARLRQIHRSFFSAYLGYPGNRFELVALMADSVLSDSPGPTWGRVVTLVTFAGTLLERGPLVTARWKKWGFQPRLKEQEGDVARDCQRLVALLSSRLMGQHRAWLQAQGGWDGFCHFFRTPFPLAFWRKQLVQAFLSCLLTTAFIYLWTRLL

[10] = viability of uninfected HEp-2 cells – cell-based, HTS, cytotoxicity control for RSV inhibitor project, dose response (AID 2410); assay type: functional; settings: human respiratory syncytial virus
[11] = biological target: T3, Mannose-6-phosphate isomerase (Homo sapiens, UniProt P34949); assay: MPI inhibition at elevated mannose 6-phosphate – biochemical, fluorescence intensity, high mannose 6-phosphate, primary screen (AID 1220)
T3 sequence (P34949 whole entry): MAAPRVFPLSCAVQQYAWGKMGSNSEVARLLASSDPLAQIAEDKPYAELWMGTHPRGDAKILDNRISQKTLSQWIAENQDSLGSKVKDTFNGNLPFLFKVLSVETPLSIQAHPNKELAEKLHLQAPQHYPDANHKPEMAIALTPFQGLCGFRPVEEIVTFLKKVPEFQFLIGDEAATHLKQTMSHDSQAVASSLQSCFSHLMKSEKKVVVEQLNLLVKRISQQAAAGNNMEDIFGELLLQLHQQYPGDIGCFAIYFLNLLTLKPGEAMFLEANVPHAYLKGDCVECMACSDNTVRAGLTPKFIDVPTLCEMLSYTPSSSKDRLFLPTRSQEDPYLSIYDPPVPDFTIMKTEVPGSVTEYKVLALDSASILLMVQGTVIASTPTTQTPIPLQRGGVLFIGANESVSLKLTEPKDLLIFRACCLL

[12] = HPDE-C7 pancreatic duct cell viability loss – fluorescence, HTS (AID 430); assay type: functional, cell-based; settings: Homo sapiens
[13] = viability loss of HPDE-C7K cells – cell-based, fluorescence, HTS, primary screen (AID 431); assay type: functional; settings: Homo sapiens
[14] = THP-1 cell cytotoxicity, dose response, cytotoxicity control for non-replicating M. tuberculosis project (AID 489025); assay type: functional
[15] = cells; assay type: functional
[16] = M. tuberculosis H37Rv growth inhibitors, H37Rv strain (AID 1626); assay type: functional
[17] = Luminescence Cell-Based Dose Response HTS to Identify Inhibitors of 5'UTR Stem-Loop Driven Prion Protein mRNA Translation in H4 Neuroglioblastoma Cells. [Related pubchem assays: 1827 (Project Summary), 1813 (Primary HTS)]; assay type: functional
[18] = alpha-synuclein stem-loop luciferase translation blockers – H4 neuroglioma cells, luminescence, confirmation (AID 1988); assay type: functional, cell-based
[19] = HEK-293T cell viability reduction – luminescence, B-cell screen hits, cytotoxicity control for BCR NF-kB inhibitor project, dose response (AID 489021); assay type: functional, cell-based;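 note: HEK-293T cells carrying an NF-kB luciferase reporter; cells exposed to compound for about 14 hours before viability readout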
[20] = luciferase reporter signal suppression in cells – H4 neuroglioma cells, luminescence, dose response (AID 1990); assay type: functional, cell-based
[21] = NIH3T3 cell viability loss – ATP luminescence, mouse fibroblasts, counter-screen, dose response (AID 2010); assay type: functional, cell-based;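 note: cells exposed to compound for about 90 hours before reading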
[22] = Trypanosoma cruzi growth suppression in host cells – NIH3T3 host cells, beta-gal luminescence, confirmation (AID 2044); assay type: functional, cell-based;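 note: intracellular parasites grown in NIH/3T3 mouse fibroblasts as host cells; luminescent beta-galactosidase reporter signal from transgenic T. cruzi replicating inside host cells; inhibitors lower the luminescence signal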

Chain of Tumor necrosis factor (P01375 whole entry): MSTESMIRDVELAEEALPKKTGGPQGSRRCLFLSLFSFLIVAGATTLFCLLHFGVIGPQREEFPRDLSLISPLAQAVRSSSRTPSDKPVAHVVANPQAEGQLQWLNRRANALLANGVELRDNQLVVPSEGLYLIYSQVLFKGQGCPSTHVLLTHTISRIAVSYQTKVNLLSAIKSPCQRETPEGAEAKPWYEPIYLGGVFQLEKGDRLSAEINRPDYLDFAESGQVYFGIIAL

In the case of `COc1ccccc1CNc1ncnc2sccc12`, the EC50 [1] is reported as 1.69 µM (active), the IC50 [2] is reported as 14.8 µM (active) and the IC50 [3] is reported as 4.4 µM (active). The IC50 [4] was 8.12 µM (active), the IC50 [5] was 4.19 µM (active) and the IC50 [6] was > 20 µM (inactive). For the same molecule, the AC50 [7] was 4.26 µM (active) and the IC50 [8] was 3.08 µM (active).

For `COC(=O)c1[nH]c2cccc(OC)c2c1NC(=O)CCN1CCC(C(N)=O)CC1`, the IC50 [9] was > 100 µM (inactive).

In the case of `COc1cc2c(C#N)c(N3CCc4ccccc4C3)nc(N)c2c(N)n1`, the CC50 [10] is reported as 15.2 µM (active), the IC50 [11] is reported as > 50 µM (not active) and the EC50 [12] is reported as 7.82 µM (active). The EC50 [13] was 8.37 µM (active).

For `COc1ccc(NC(=O)c2ccc(COCC(F)(F)C(F)F)cc2)cc1`, the CC50 [14] was > 40 µM (active), the IC50 [15] was 47.8 µM (active) and the IC50 [16] was > 100 µM (active).

For `CCOC(=O)c1cc2c(=O)n3ccccc3nc2n(CC(C)C)/c1=N/C(=O)c1c(-c2c(F)cccc2Cl)noc1C`, the EC50 [17] was 15.8 µM (active), the EC50 [18] was 42.8 µM (active) and the IC50 [19] was > 80 µM (inactive). The EC50 [20] was 14.1 µM (active).

For `C/C(=C\C(=O)c1cccnc1)Nc1ccc(C(=O)O)cc1`, the IC50 [11] was > 50 µM (not active).

For `N=c1c2c(n(Cc3cccc(Cl)c3)c3c1CCC3)CCCC2`, the EC50 [21] was > 60 µM (inconclusive), the IC50 [19] was > 80 µM (inactive) and the EC50 [22] was 0.167 µM (active). For the same molecule, the AC50 [7] was 6.82 µM (active).
